This note sets out measurements from patent publication US11458123B2 (Arvinas, Inc., priority 2016, dated 2022).

In one experiment the test system is tau protein. The experiment is described as follows: Tau protein in vitro degradation assay (Western blot, Tau-13 antibody). The format is cell-based, human. Particulars: SK-N-SH cells; 72 hours of incubation; tested at 300 nM, 100 nM, 33 nM and 11 nM; Western blot, Tau-13 antibody. In a few lines:
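Tau degradation read by Tau-13 Western blot (detects all human tau forms) of SDS-PAGE-resolved lysates from SK-N-SH cells. Cells were plated at least 18 h before 72 h exposure to PROTACs at either 1000/300/100 nM or 300/100/33/11 nM.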
Background: A western blot detects proteins with antibodies after separation by electrophoresis.
In the case of `Cn1c2ccncc2c2ccc(-c3ccc(O[C@H]4C[C@H](Oc5cccc(OCCCCCCOc6ccc7c(c6)C(=O)N(C6CCC(=O)NC6=O)C7=O)n5)C4)nc3)cc21` (stereo partly shown) [Compound 108, 2-(2,6-dioxopiperidin-3-yl)-5-((6-((6-((1r,3r)-3-((5-(5-methyl-5H-pyrido[4,3-b]indol-7-yl)pyridin-2-yl)oxy)cyclobutoxy)pyridin-2-yl)oxy)hexyl)oxy)isoindoline-1,3-dione], the “Degradation activity* (highest amount of degradation observed at any dosage; tau protein remaining)” value is “C (>80% tau protein remaining after 72 hours of incubation with the test compound)”.

Take `Cn1c2ccncc2c2ccc(-c3cnc(OCCOCCOCCOCCOCCOc4ccc5c(c4)C(=O)N(C4CCC(=O)NC4=O)C5=O)cc3Cl)cc21` (stereo not shown) [Compound 113, 5-((14-((4-chloro-5-(5-methyl-5H-pyrido[4,3-b]indol-7-yl)pyridin-2-yl)oxy)-3,6,9,12-tetraoxatetradecyl)oxy)-2-(2,6-dioxopiperidin-3-yl)isoindoline-1,3-dione]: the “Degradation activity* (highest amount of degradation observed at any dosage; tau protein remaining)” value is on record as “C (>80% tau protein remaining after 72 hours of incubation with the test compound)”.

In the case of `Cn1c2ccncc2c2ccc(-c3ccc(O[C@H]4C[C@H](OCCCOCCCN5CC(Oc6ccc7c(c6)C(=O)N(C6CCC(=O)NC6=O)C7=O)C5)C4)nc3)cc21` (stereo partly shown) [Compound 99, 2-(2,6-dioxopiperidin-3-yl)-5-((1-(3-(3-((1r,3r)-3-((5-(5-methyl-5H-pyrido[4,3-b]indol-7-yl)pyridin-2-yl)oxy)cyclobutoxy)propoxy)propyl)azetidin-3-yl)oxy)isoindoline-1,3-dione], the “Degradation activity* (highest amount of degradation observed at any dosage; tau protein remaining)” value was “A (≤50% tau protein remaining after 72 hours of incubation with the test compound)”.

Take `Cn1c2ccncc2c2ccc(-c3ccc(O[C@H]4C[C@H](OCCCCCCOCC5CN(c6ccc7c(c6)C(=O)N(C6CCC(=O)NC6=O)C7=O)C5)C4)nc3)cc21` (stereo partly shown) [Compound 178, 2-(2,6-dioxopiperidin-3-yl)-5-(3-(((6-((1r,3r)-3-((5-(5-methyl-5H-pyrido[4,3-b]indol-7-yl)pyridin-2-yl)oxy)cyclobutoxy)hexyl)oxy)methyl)azetidin-1-yl)isoindoline-1,3-dione]: the “Degradation activity (tau protein remaining; highest amount of degradation observed at any dosage)” value is given as “A (≤50% tau protein remaining after 72 hours of incubation with the test compound)”.

For the compound `Cc1ncsc1-c1ccc([C@H](C)NC(=O)[C@@H]2C[C@@H](O)CN2C(=O)[C@@H](NC(=O)COCCOCCOCCOCCOCCOc2ccc(-c3ccc4c(c3)[nH]c3ccncc34)cn2)C(C)(C)C)cc1` [Compound 121, (2S,4R)-1-((S)-20-((5-(5H-pyrido[4,3-b]indol-7-yl)pyridin-2-yl)oxy)-2-(tert-butyl)-4-oxo-6,9,12,15,18-pentaoxa-3-azaicosanoyl)-4-hydroxy-N—((S)-1-(4-(4-methylthiazol-5-yl)phenyl)ethyl)pyrrolidine-2-carboxamide], the “Degradation activity* (highest amount of degradation observed at any dosage; tau protein remaining)” value was “B (≤80% and >50% tau protein remaining after 72 hours of incubation with the test compound)”.

As for `Cn1c2ccncc2c2ccc(-c3ccc(O[C@H]4C[C@@H](C(=O)N5CC6(CC(OCCCCOc7ccc8c(c7)C(=O)N(C7CCC(=O)NC7=O)C8=O)C6)C5)C4)nc3)cc21` (stereo partly shown) [Compound 136, 2-(2,6-dioxopiperidin-3-yl)-5-(4-((2-((1 s,3 s)-3-((5-(5-methyl-5H-pyrido[4,3-b]indol-7-yl)pyridin-2-yl)oxy)cyclobutane-1-carbonyl)-2-azaspiro[3.3]heptan-6-yl)oxy)butoxy)isoindoline-1,3-dione], the “Degradation activity* (highest amount of degradation observed at any dosage; tau protein remaining)” value is reported as “C (>80% tau protein remaining after 72 hours of incubation with the test compound)”.

`Cn1c2ccncc2c2ccc(-c3ccc(O[C@H]4C[C@H](OCCOCCOCC5CN(c6ccc7c(c6)C(=O)N(C6CCC(=O)NC6=O)C7=O)C5)C4)nc3)cc21` (stereo partly shown) [Compound 192, 2-(2,6-dioxopiperidin-3-yl)-5-(3-((2-(2-((1r,3r)-3-((5-(5-methyl-5H-pyrido[4,3-b]indol-7-yl)pyridin-2-yl)oxy)cyclobutoxy)ethoxy)ethoxy)methyl)azetidin-1-yl)isoindoline-1,3-dione]: the “Degradation activity (tau protein remaining; highest amount of degradation observed at any dosage)” value is “C (>80% tau protein remaining after 72 hours of incubation with the test compound)”.

With `Cn1c2ccncc2c2ccc(-c3ccc(O[C@H]4C[C@H](OCCCCOCCCCOC5CN(c6ccc7c(c6)C(=O)N(C6CCC(=O)NC6=O)C7=O)C5)C4)nc3)cc21` (stereo partly shown) [Compound 162, 2-(2,6-dioxopiperidin-3-yl)-5-(3-(4-(4-((1r,3r)-3-((5-(5-methyl-5H-pyrido[4,3-b]indol-7-yl)pyridin-2-yl)oxy)cyclobutoxy)butoxy)butoxy)azetidin-1-yl)isoindoline-1,3-dione], the “Degradation activity* (highest amount of degradation observed at any dosage; tau protein remaining)” value was “A (≤50% tau protein remaining after 72 hours of incubation with the test compound)”.

The experiment is the same for the next values; noted with them: SK-N-SH cells; 72 hours of incubation; tested at 1000 nM, 300 nM and 100 nM.
`Cc1ncoc1-c1ccc(CNC(=O)[C@@H]2C[C@@H](O)CN2C(=O)[C@@H](NC(=O)COCCOCCOCCOCCN2CCN(c3ccn4c(n3)nc3ccccc34)CC2)C(C)(C)C)cc1` [Compound 12, (2S,4R)-1-((S)-17-(4-(benzo[4,5]imidazo[1,2-a]pyrimidin-2-yl)piperazin-1-yl)-2-(tert-butyl)-4-oxo-6,9,12,15-tetraoxa-3-azaheptadecanoyl)-4-hydroxy-N-(4-(4-methyloxazol-5-yl)benzyl)pyrrolidine-2-carboxamide]: the “Activity* (highest amount of degradation observed at any dosage, as tau protein remaining)” value is given as “C (>80% tau protein remaining after 72 hours of incubation with the test compound)”.

Take `Cc1ncsc1-c1ccc(CNC(=O)[C@@H]2C[C@@H](O)CN2C(=O)[C@@H](NC(=O)COCCCOCCCOc2ccc3nc(-c4ccc(N(C)C)cc4)ccc3c2)C(C)(C)C)cc1` [Compound 35, (2S,4R)-1-((S)-2-(2-(3-(3-(2-(4-(dimethylamino)phenyl)quinolin-6-yloxy)propoxy)propoxy)acetamido)-3,3-dimethylbutanoyl)-4-hydroxy-N-(4-(4-methylthiazol-5-yl)benzyl)pyrrolidine-2-carboxamide]: the “Activity* (highest amount of degradation observed at any dosage, as tau protein remaining)” value was “C (>80% tau protein remaining after 72 hours of incubation with the test compound)”.

Regarding `Cc1ncsc1-c1ccc(CNC(=O)[C@@H]2C[C@@H](O)CN2C(=O)[C@@H](NC(=O)COCCOCCOCCOCCOc2ccc3nc(-c4ccc(N(C)C)cc4)ccc3c2)C(C)(C)C)cc1` [Compound 31], the “Activity* (highest amount of degradation observed at any dosage, as tau protein remaining)” value is “C (>80% tau protein remaining after 72 hours of incubation with the test compound)”.

Turning to `Cc1ncsc1-c1ccc(CNC(=O)[C@@H]2C[C@@H](O)CN2C(=O)[C@@H](NC(=O)COCCOCCOCCOCCCOc2ccc3nc(-c4ccc(N(C)C)cc4)ccc3c2)C(C)(C)C)cc1` [Compound 9, (2S,4R)-1-((S)-2-tert-butyl-18-(2-(4-(dimethylamino)phenyl)quinolin-6-yloxy)-4-oxo-6,9,12,15-tetraoxa-3-azaoctadecane)-4-hydroxy-N-(4-(4-methylthiazol-5-yl)benzyl)pyrrolidine-2-carboxamide], the “Activity* (highest amount of degradation observed at any dosage, as tau protein remaining)” value is given as “C (>80% tau protein remaining after 72 hours of incubation with the test compound)”.

On to `CN(C)c1ccc(-c2ccc3cc(OCCCOCCOCCOCCNc4cccc5c4C(=O)N(C4CCC(=O)NC4=O)C5=O)ccc3n2)cc1` (stereo not shown) [Compound 44, 4-(2-(2-(2-(3-(2-(4-(dimethylamino)phenyl)quinolin-6-yloxy)propoxy)ethoxy)ethoxy)ethylamino)-2-(2,6-dioxopiperidin-3-yl)isoindoline-1,3-dione], for which the “Activity* (highest amount of degradation observed at any dosage, as tau protein remaining)” value is reported as “C (>80% tau protein remaining after 72 hours of incubation with the test compound)”.

Regarding `Cc1ncoc1-c1ccc(CNC(=O)[C@@H]2C[C@@H](O)CN2C(=O)[C@@H](NC(=O)COCCOCCOCCOCC(=O)N2CCN(c3ccn4c(n3)nc3ccccc34)CC2)C(C)(C)C)cc1` [Compound 14, (2S,4R)-1-((S)-17-(4-(benzo[4,5]imidazo[1,2-a]pyrimidin-2-yl)piperazin-1-yl)-2-(tert-butyl)-4,17-dioxo-6,9,12,15-tetraoxa-3-azaheptadecanoyl)-4-hydroxy-N-(4-(4-methyloxazol-5-yl)benzyl)pyrrolidine-2-carboxamide], the “Activity* (highest amount of degradation observed at any dosage, as tau protein remaining)” value was “C (>80% tau protein remaining after 72 hours of incubation with the test compound)”.

Turning to `Cc1ncsc1-c1ccc(CNC(=O)[C@@H]2C[C@@H](O)CN2C(=O)[C@@H](NC(=O)COCCOCCOc2ccc3nc(-c4ccc(N(C)C)cc4)ccc3c2)C(C)(C)C)cc1` [Compound 27, (2S,4R)-1-((S)-2-(2-(2-(2-(2-(4-(dimethylamino)phenyl)quinolin-6-yloxy)ethoxy)ethoxy)acetamido)-3,3-dimethylbutanoyl)-4-hydroxy-N-(4-(4-methylthiazol-5-yl)benzyl)pyrrolidine-2-carboxamide], the “Activity* (highest amount of degradation observed at any dosage, as tau protein remaining)” value was “C (>80% tau protein remaining after 72 hours of incubation with the test compound)”.

For `Cc1ncoc1-c1ccc(CNC(=O)[C@@H]2C[C@@H](O)CN2C(=O)[C@@H](NC(=O)COCCOCCOCC(=O)N2CCN(c3ccn4c(n3)nc3ccccc34)CC2)C(C)(C)C)cc1` [Compound 13, (2S,4R)-1-((S)-14-(4-(benzo[4,5]imidazo[1,2-a]pyrimidin-2-yl)piperazin-1-yl)-2-(tert-butyl)-4,14-dioxo-6,9,12-trioxa-3-azatetradecanoyl)-4-hydroxy-N-(4-(4-methyloxazol-5-yl)benzyl)pyrrolidine-2-carboxamide], the “Activity* (highest amount of degradation observed at any dosage, as tau protein remaining)” value is reported as “C (>80% tau protein remaining after 72 hours of incubation with the test compound)”.
